Assay results: US11530222B2, “Substituted pyrrolopyrimidine and pyrazolopyrimidine as Bruton's tyrosine kinase (BTK) degraders” (ACCUTAR BIOTECHNOLOGY INC., priority 2021, dated 2022)

How the values were obtained:
Format in all cases: cell-based
[1] = molecular target: T1, BTK (Homo sapiens, UniProt Q06187); assay: BTK degradative activity in a RAMOS cell line (Western blot); settings: 6 hours after administration, read-out: RAMOS BTK Degradation DC50
T1 construct: BTK Degradative Activity of Exemplary Compounds of the Present Disclosure in a RAMOS Cell Line; host or cells: RAMOS
T1 sequence (Q06187 whole entry): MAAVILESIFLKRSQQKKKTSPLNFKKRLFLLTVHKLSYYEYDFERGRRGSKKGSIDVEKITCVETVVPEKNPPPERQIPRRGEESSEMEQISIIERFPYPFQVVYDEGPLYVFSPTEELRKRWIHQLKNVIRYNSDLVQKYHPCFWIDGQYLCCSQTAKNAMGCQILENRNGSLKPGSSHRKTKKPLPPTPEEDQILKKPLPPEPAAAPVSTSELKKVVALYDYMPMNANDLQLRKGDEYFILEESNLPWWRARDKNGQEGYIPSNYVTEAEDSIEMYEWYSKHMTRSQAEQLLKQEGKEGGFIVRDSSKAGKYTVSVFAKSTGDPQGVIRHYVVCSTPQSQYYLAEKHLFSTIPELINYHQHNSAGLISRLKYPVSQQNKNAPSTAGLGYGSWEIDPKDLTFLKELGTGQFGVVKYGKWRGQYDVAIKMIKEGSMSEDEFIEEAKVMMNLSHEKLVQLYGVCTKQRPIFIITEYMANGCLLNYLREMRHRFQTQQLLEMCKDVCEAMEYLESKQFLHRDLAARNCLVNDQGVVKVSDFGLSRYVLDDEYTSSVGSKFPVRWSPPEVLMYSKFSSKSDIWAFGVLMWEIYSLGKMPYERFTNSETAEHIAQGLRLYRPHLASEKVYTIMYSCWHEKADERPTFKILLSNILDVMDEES
Procedure, shortened: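 Ramos cells in RPMI with 10% FBS were treated with compound in DMSO at various concentrations for 6 h at 37 °C. BTK was measured by Western blot against GAPDH with infrared fluorescent detection and band quantification. DC50 is the concentration at which 50% of BTK is degraded.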

[2] = test system: REC-1 cells; assay: Growth inhibitory activity in BTK-dependent REC-1 cell line (CellTiter-Glo); settings: Homo sapiens, Rec1, 144 h, 6 days after administration, read-out: REC1 Cellular Grwoth Inhibition IC50
Protocol: (§1) REC-1 (ATCC) and REC-1 BTK^C481S cells were plated in 96-well plates at 8,000 cells/well in 90 ul of RPMI growth medium containing 10% heat-inactivated FBS and 1× Penicillin Streptomycin, and then incubated at 37° C. overnight. The following day, the test compound was administered to the cells by using 10× compound stock solution prepared in growth medium at various concentrations. After administration of the compound, cells were then incubated at 37° C. for 6 days. Before CellTiter-Glo assay, the plates were equilibrated at room temperature for approximately 10 minutes. 100 ul of CellTiter-Glo® Reagent (Promega) was added to each well. The plates were then incubated at room temperature for 10 minutes and luminescence was recorded by EnSpire plate reader (PerkinElmer).
(§2) The GI50 values (i.e., the concentration of test compound at which 50% of cell growth are inhibited) were calculated. A designation of “A” corresponds to a […] value less than 20 nM. A designation of “B” corresponds to a […] value greater than or equal to 20 nM and less than 200 nM. A designation of “C” corresponds to a […] value greater than or equal to 200 nM.

[3] = test system: REC-1 BTK^C481S cells; assay: Growth inhibitory activity in REC-1 BTK^C481S cell line (CellTiter-Glo); settings: Homo sapiens, Rec1, 144 h, 6 days after administration, read-out: REC1 BTK^C481S Cellular Grwoth Inhibition IC50
Protocol: The BTK gene in REC-1 cell line (ATCC) was edited by the CRISPR-Cas9 technology to create a C to S point mutation at residue 481 of BTK protein. For gene editing, first, gRNA complex was prepared with Alt-R CRISPR-Cas9 tracrRNA and crRNA BTK^C481S (5′-[…]-3′) (IDT-Integrated DNA Technologies), and then BTK^C481S ribonucleoprotein (RNP) complex was prepared with gRNA complex and Alt-R S.p. Cas9 Nuclease V3 (IDT-Integrated DNA Technologies). Next, 1×10^5 REC-1 cells were electroporated with BTK^C481S RNP complex, Alt-R Cas9 Electroporation Enhancer and BTKC481S Ultramer DNA Oligo (5′-[…] […]-3′) (IDT-Integrated DNA Technologies) using Neon Transfection System (Thermo Fisher) under the condition of 1400 V, 10 ms, 3 pulses. Cells were then plated in a 96-well plate for 10 days and selected with 10 nM Ibrutinib for 5 passages. C481S mutation of BTK was further validated by Sanger Sequencing using gDNA extracted from these cells.
as §1, §2

| SMILES | DC50 [1] [nM] | IC50 [2] [nM] | IC50 [3] [nM] |
| --- | --- | --- | --- |
| COc1ccc(F)cc1C(=O)NCc1ccc(-c2nn(-c3ccc(N4CCC(CN5CCN(c6ccc7c(c6)CN([C@H]6CCC(=O)NC6=O)C7=O)CC5)CC4)c(F)c3)c3ncnc(N)c23)cc1 [Compound 49, (S)—N-(4-(4-amino-1-(4-(4-((4-(2-(2,6-dioxopiperidin-3-yl)-1-oxoisoindolin-5-yl)piperazin-1-yl)methyl)piperidin-1-yl)-3-fluorophenyl)-1H-pyrazolo[3,4-d]pyrimidin-3-yl)benzyl)-5-fluoro-2-methoxybenzamide] | < 10 | < 20 | < 20 |
| COc1ccc(F)cc1C(=O)NCc1ccc(-c2nn(-c3ccc(N4CCC(CN5CCN(c6ccc7c(c6)CN([C@H]6CCC(=O)NC6=O)C7=O)CC5)CC4)nc3)c3ncnc(N)c23)cc1 [Compound 59, (S)—N-(4-(4-amino-1-(6-(4-((4-(2-(2,6-dioxopiperidin-3-yl)-1-oxoisoindolin-5-yl)piperazin-1-yl)methyl)piperidin-1-yl)pyridin-3-yl)-1H-pyrazolo[3,4-d]pyrimidin-3-yl)benzyl)-5-fluoro-2-methoxybenzamide] | – | < 20 | < 20 |
| COc1ccc(F)cc1C(=O)NCc1ccc(-c2nn(C3CCN(c4ccc(CN5CCN(c6ccc7c(c6)CN([C@H]6CCC(=O)NC6=O)C7=O)CC5)cc4)C3)c3ncnc(N)c23)cc1 (stereo partly drawn) [Compound 60, N-(4-(4-amino-1-(1-(4-((4-(2-((S)-2,6-dioxopiperidin-3-yl)-1-oxoisoindolin-5-yl)piperazin-1-yl)methyl)phenyl)pyrrolidin-3-yl)-1H-pyrazolo[3,4-d]pyrimidin-3-yl)benzyl)-5-fluoro-2-methoxybenzamide] | ≥ 100 | 20 to 200 | – |
| COc1ccc(F)cc1C(=O)NCc1ccc(-c2nn(C3CN(c4ccc(CN5CCN(c6ccc7c(c6)CN([C@H]6CCC(=O)NC6=O)C7=O)CC5)cc4)C3)c3ncnc(N)c23)cc1 [Compound 61, (S)—N-(4-(4-amino-1-(1-(4-((4-(2-(2,6-dioxopiperidin-3-yl)-1-oxoisoindolin-5-yl)piperazin-1-yl)methyl)phenyl)azetidin-3-yl)-1H-pyrazolo[3,4-d]pyrimidin-3-yl)benzyl)-5-fluoro-2-methoxybenzamide] | < 10 | < 20 | – |
| COc1ccc(F)cc1C(=O)NCc1ccc(-c2nn(C3CN(C(=O)c4ccc(CN5CCN(c6ccc7c(c6)CN([C@H]6CCC(=O)NC6=O)C7=O)CC5)cc4)C3)c3ncnc(N)c23)cc1 [Compound 62, (S)—N-(4-(4-amino-1-(1-(4-((4-(2-(2,6-dioxopiperidin-3-yl)-1-oxoisoindolin-5-yl)piperazin-1-yl)methyl)benzoyl)azetidin-3-yl)-1H-pyrazolo[3,4-d]pyrimidin-3-yl)benzyl)-5-fluoro-2-methoxybenzamide] | < 10 | 20 to 200 | – |
| COc1ccc(F)cc1C(=O)NCc1ccc(-c2nn(C3CCN(C(=O)c4ccc(CN5CCN(c6ccc7c(c6)CN([C@H]6CCC(=O)NC6=O)C7=O)CC5)cc4)C3)c3ncnc(N)c23)cc1 (some centres unmarked) [Compound 63] | < 10 | 20 to 200 | – |
| COc1ccc(F)cc1C(=O)NCc1ccc(-c2nn(C3CCN(C(=O)CCCCCN4CCN(c5ccc6c(c5)CN([C@H]5CCC(=O)NC5=O)C6=O)CC4)C3)c3ncnc(N)c23)cc1 (stereo partly drawn) [Compound 64, N-(4-(4-amino-1-(1-(6-(4-(2-((S)-2,6-dioxopiperidin-3-yl)-1-oxoisoindolin-5-yl)piperazin-1-yl)hexanoyl)pyrrolidin-3-yl)-1H-pyrazolo[3,4-d]pyrimidin-3-yl)benzyl)-5-fluoro-2-methoxybenzamide] | < 10 | 20 to 200 | – |
| COc1ccc(F)cc1C(=O)NCc1ccc(-c2nn(-c3ccc(N4CCC(CN5CCN(c6ccc7c(c6)CN([C@H]6CCC(=O)NC6=O)C7=O)CC5)C4)c(F)c3)c3ncnc(N)c23)cc1 (stereo partly drawn) [Compound 65, N-(4-(4-amino-1-(4-(3-((4-(2-((S)-2,6-dioxopiperidin-3-yl)-1-oxoisoindolin-5-yl)piperazin-1-yl)methyl)pyrrolidin-1-yl)-3-fluorophenyl)-1H-pyrazolo[3,4-d]pyrimidin-3-yl)benzyl)-5-fluoro-2-methoxybenzamide] | < 10 | < 20 | < 20 |
| COc1ccc(F)cc1C(=O)NCc1ccc(-c2nn(-c3ccc(N4CCC(CN5CCN(c6ccc7c(c6)CN([C@H]6CCC(=O)NC6=O)C7=O)CC5)C4)nc3)c3ncnc(N)c23)cc1 (stereo partly drawn) [Compound 66, N-(4-(4-amino-1-(6-(3-((4-(2-((S)-2,6-dioxopiperidin-3-yl)-1-oxoisoindolin-5-yl)piperazin-1-yl)methyl)pyrrolidin-1-yl)pyridin-3-yl)-1H-pyrazolo[3,4-d]pyrimidin-3-yl)benzyl)-5-fluoro-2-methoxybenzamide] | < 10 | < 20 | < 20 |
| COc1ccc(F)cc1C(=O)NCc1ccc(-c2nn(-c3ccc(N4CC(CN5CCN(c6ccc7c(c6)CN([C@H]6CCC(=O)NC6=O)C7=O)CC5)C4)c(F)c3)c3ncnc(N)c23)cc1 [Compound 85, (S)—N-(4-(4-amino-1-(4-(3-((4-(2-(2,6-dioxopiperidin-3-yl)-1-oxoisoindolin-5-yl)piperazin-1-yl)methyl)azetidin-1-yl)-3-fluorophenyl)-1H-pyrazolo[3,4-d]pyrimidin-3-yl)benzyl)-5-fluoro-2-methoxybenzamide] | < 10 | < 20 | < 20 |
| COc1ccc(F)cc1C(=O)NCc1ccc(-c2nn(C3CCN(c4ccc(CN5CCN(c6ccc7c(c6)CN([C@H]6CCC(=O)NC6=O)C7=O)CC5)cn4)C3)c3ncnc(N)c23)cc1 (stereo partly drawn) [Compound 92, N-(4-(4-amino-1-(1-(5-((4-(2-((S)-2,6-dioxopiperidin-3-yl)-1-oxoisoindolin-5-yl)piperazin-1-yl)methyl)pyridin-2-yl)pyrrolidin-3-yl)-1H-pyrazolo[3,4-d]pyrimidin-3-yl)benzyl)-5-fluoro-2-methoxybenzamide] | < 10 | 20 to 200 | – |
| COc1ccc(F)cc1C(=O)NCc1ccc(-c2nn(-c3ccc(N4CC[C@H](CN5CCN(c6ccc7c(c6)CN([C@H]6CCC(=O)NC6=O)C7=O)CC5)C4)nc3)c3ncnc(N)c23)cc1 [Compound 93, N-(4-(4-amino-1-(6-((R)-3-((4-(2-((S)-2,6-dioxopiperidin-3-yl)-1-oxoisoindolin-5-yl)piperazin-1-yl)methyl)pyrrolidin-1-yl)pyridin-3-yl)-1H-pyrazolo[3,4-d]pyrimidin-3-yl)benzyl)-5-fluoro-2-methoxybenzamide] | < 10 | < 20 | < 20 |
| COc1ccc(F)cc1C(=O)NCc1ccc(-c2nn(-c3ccc(N4CC[C@@H](CN5CCN(c6ccc7c(c6)CN([C@H]6CCC(=O)NC6=O)C7=O)CC5)C4)nc3)c3ncnc(N)c23)cc1 [Compound 94, N-(4-(4-amino-1-(6-((S)-3-((4-(2-((S)-2,6-dioxopiperidin-3-yl)-1-oxoisoindolin-5-yl)piperazin-1-yl)methyl)pyrrolidin-1-yl)pyridin-3-yl)-1H-pyrazolo[3,4-d]pyrimidin-3-yl)benzyl)-5-fluoro-2-methoxybenzamide] | < 10 | < 20 | < 20 |
| COc1ccc(F)cc1C(=O)NCc1ccc(-c2nn(-c3ccc(N4CC[C@H](CN5CCN(c6ccc7c(c6)CN([C@H]6CCC(=O)NC6=O)C7=O)CC5)C4)c(F)c3)c3ncnc(N)c23)cc1 [Compound 95, N-(4-(4-amino-1-(4-((R)-3-((4-(2-((S)-2,6-dioxopiperidin-3-yl)-1-oxoisoindolin-5-yl)piperazin-1-yl)methyl)pyrrolidin-1-yl)-3-fluorophenyl)-1H-pyrazolo[3,4-d]pyrimidin-3-yl)benzyl)-5-fluoro-2-methoxybenzamide] | < 10 | < 20 | < 20 |
